Here are results for 18 molecules from patent publication US7906551B2 (Rottapharm S.p.A., priority 2006, dated 2011).

Like-named read-outs stand apart in the source and are kept apart here. Some results are limits rather than exact numbers.

In one assay the target is T1, COX-2 (Mus musculus, UniProt Q05769).
T1 construct: lipopolysaccharide (LPS, 10 μg/mL) to induce COX-2; endogenous in cells; host or cells: J774 murine monocyte/macrophage cell line, LPS-stimulated
T1 sequence (Q05769 18-604): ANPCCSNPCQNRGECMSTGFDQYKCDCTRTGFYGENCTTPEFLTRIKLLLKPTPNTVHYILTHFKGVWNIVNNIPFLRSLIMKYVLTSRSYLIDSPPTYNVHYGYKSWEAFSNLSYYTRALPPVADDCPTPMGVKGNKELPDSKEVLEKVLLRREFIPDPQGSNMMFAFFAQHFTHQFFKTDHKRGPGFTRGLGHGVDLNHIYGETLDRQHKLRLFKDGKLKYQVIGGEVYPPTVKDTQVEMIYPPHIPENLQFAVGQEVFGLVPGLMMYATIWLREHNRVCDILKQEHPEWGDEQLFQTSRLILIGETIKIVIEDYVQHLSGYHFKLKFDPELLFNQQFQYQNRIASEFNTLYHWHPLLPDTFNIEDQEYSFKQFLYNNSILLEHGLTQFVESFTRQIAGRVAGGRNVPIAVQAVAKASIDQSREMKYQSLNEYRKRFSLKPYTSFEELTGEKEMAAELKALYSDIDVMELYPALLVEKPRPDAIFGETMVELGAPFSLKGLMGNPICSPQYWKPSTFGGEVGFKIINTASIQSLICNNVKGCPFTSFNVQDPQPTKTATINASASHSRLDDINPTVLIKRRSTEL
The assay can be described thus: Assessment of COX-2 activity in LPS-stimulated J774 cells (PGE2 radioimmunoassay). It counts as cell-based, murine. Particulars: for COX-1/COX-2 Selectivity Index (IC50 ratio): Table 6, Formula Ib; for IC50: read-out: COX-2 IC50. The procedure:
Cells were stimulated for 24 h with E. coli lipopolysaccharide (LPS, 10 μg/mL) to induce COX-2, in the absence or presence of test compounds, at the concentrations previously reported. The supernatants were collected for the measurement of PGE2 by radioimmunoassay.
(§1) Analysis. Throughout the time the experiments lasted, triplicate wells were used for the various conditions of treatment. Results are expressed as the mean, for 3 experiments, of the % inhibition of PGE2 production by test compounds with respect to control samples. Data fit was obtained using the sigmoidal dose-response equation (variable slope). The IC50 were calculated by GraphPad Instat program (GraphPad software).

In another assay the target is T2, COX-1 (Mus musculus, UniProt P22437).
T2 construct: endogenous in cells; host or cells: J774 murine monocyte/macrophage cell line
T2 sequence (P22437 27-602): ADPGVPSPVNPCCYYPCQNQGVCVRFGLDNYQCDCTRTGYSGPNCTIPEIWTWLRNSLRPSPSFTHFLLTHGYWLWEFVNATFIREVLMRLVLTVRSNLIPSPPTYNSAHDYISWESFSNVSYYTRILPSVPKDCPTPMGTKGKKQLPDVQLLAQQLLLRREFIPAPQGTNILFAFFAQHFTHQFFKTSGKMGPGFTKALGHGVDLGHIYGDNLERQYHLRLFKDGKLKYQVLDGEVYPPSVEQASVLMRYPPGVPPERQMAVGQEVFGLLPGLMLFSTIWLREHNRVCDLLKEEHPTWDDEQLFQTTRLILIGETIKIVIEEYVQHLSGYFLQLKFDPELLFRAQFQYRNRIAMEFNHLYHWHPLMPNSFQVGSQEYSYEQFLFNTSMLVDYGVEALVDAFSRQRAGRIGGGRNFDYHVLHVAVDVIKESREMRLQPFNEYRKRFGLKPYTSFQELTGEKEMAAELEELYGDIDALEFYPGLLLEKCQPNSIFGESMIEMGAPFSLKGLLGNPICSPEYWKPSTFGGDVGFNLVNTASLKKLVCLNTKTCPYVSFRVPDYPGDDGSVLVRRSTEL
Kind of assay: Assessment of COX-1 activity in J774 cells (arachidonic acid, PGE2 radioimmunoassay). It counts as cell-based, murine. The procedure: Stock solutions of the reference standard or of the test compounds were prepared in dimethyl sulphoxide, and an equivalent amount of dimethyl sulphoxide was included in control samples. At the end of the incubation the supernatants were collected for the measurement of PGE2 by radioimmunoassay.
as §1

Assay [1] has as its system rat model of hyperalgesia induced by carragenine. The assay can be described thus: Paw pressure test, hyperalgesia induced by carragenine. It counts as in vivo. Particulars: 20 mg/Kg. The procedure: (§2) Male Swiss albino mice (23-25 g) and Sprague Dawley or Wistar rats (150-200 g) were used. The animals were fed a standard laboratory diet and tap water ad libitum and kept at 23±1° C. with a 12 h light/dark cycle, light on at 7 a.m.
The nociceptive threshold in the rat was determined with an analgesimeter, according to the method described by Leighton et al, G. E.; Br. J. Pharmacol. 1988, 93, 553-560. Threshold pressure was measured before and 30, 60 and 120 min after treatment. An arbitrary cut-off value of 250 g was adopted. In order to induce an inflammatory process in the rat paw carrageenan (0.1 ml, 1%) was administered i.p. 4 h before test.

Assay [2] has as its system rat model of edema induced by carragenine. The assay can be described thus: Carrageenan-induced paw edema. It counts as in vivo. The following applies: 1 h, Table 10, 60 min, 20 mg/Kg, read-out: Edema inhibition 60 min, MPE. The procedure: as §2
Rats paw volumes were measured using a plethysmometer. Rats received the investigated compounds 4 hours after a 0.1-ml injection of 1.0% carrageenan in the right hind paw. Five hours after the injection of carrageenan (i.e. 1 hour after the administration of the investigated compound), the paw volume of the right hind paw was measured and compared with saline/carrageenan-treated controls. Results are reported as maximum percent effect (MPE), see below for detailed explanation.
(In general: Carrageenan injected into the paw causes an acute inflammation.)

The mark [3] stands for this setting: 0.5 h, Table 10, 30 min, read-out: Analgesia 30 min MPE.
The mark [4] stands for this setting: 1 h, Table 10, 60 min, read-out: Analgesia 60 min MPE.

As to `CCOC(=O)C(O)c1cc(-c2ccc(S(C)(=O)=O)cc2)n(-c2cccc(F)c2)c1C` (single isomer, unassigned; (+)) [Example 9a, (+)-Ethyl[2-hydroxy-2-[1-(3-fluoro)phenyl-2-methyl-5-(4-methylsulphonyl)phenyl-1H-pyrrol-3-yl]]acetate], at COX-2, the “COX-1/COX-2 Selectivity Index (IC50 ratio)” value is reported as more than 1300.

For `CCOC(=O)C(O)c1cc(-c2ccc(S(C)(=O)=O)cc2)n(-c2cccc(F)c2)c1C` (single isomer, unassigned; (-)) [Example 9b, (−)-Ethyl[2-hydroxy-2-[1-(3-fluoro)phenyl-2-methyl-5-(4-methylsulphonyl)phenyl-1H-pyrrol-3-yl]]acetate], the “COX-1/COX-2 Selectivity Index (IC50 ratio)” value on COX-2 is recorded as more than 650.

Consider `CCNC(=O)Cc1cc(-c2ccc(S(C)(=O)=O)cc2)n(-c2ccccc2)c1C` [Example 14, N-Ethyl-[2-methyl-5-(4-methylsulphonyl)phenyl-1-phenyl-1H-pyrrol-3-yl]acetamide], for which the IC50 on COX-2 (Table 8, Formula I-c) was 0.35 µM; on COX-1 (Table 8, Formula I-c), more than 100 µM.

For the molecule `Cc1c(CC(=O)N(C)Cc2ccccc2)cc(-c2ccc(S(C)(=O)=O)cc2)n1-c1ccccc1` [Example 16, N-Benzyl-N-methyl-[2-methyl-5-(4-methylsulphonyl)phenyl-1-phenyl-1H-pyrrol-3-yl]acetamide], the IC50 on COX-2 (Table 8, Formula I-c) was 0.17 µM; against COX-1 (Table 8, Formula I-c) it was more than 100 µM.

Regarding `CNC(=O)Cc1cc(-c2ccc(S(C)(=O)=O)cc2)n(-c2ccc(C(F)(F)F)cc2)c1C` [Example 17, N-Methyl-[2-methyl-5-(4-methylsulphonyl)phenyl-1-(4-trifluoromethyl)phenyl-1H-pyrrol-3-yl]acetamide], the IC50 at COX-2 (Table 8, Formula I-c) was 0.09 µM; against COX-1 (Table 8, Formula I-c) it was more than 100 µM.

In the case of `CCNC(=O)Cc1cc(-c2ccc(S(C)(=O)=O)cc2)n(-c2ccc(C(F)(F)F)cc2)c1C` [Example 18, N-Ethyl-[2-methyl-5-(4-methylsulphonyl)phenyl-1-(4-trifluoromethyl)phenyl-1H-pyrrol-3-yl]acetamide], the IC50 is 0.19 µM on COX-2 (Table 8, Formula I-c) and more than 100 µM on COX-1 (Table 8, Formula I-c).

As for `Cc1c(CC(=O)N(C)Cc2ccccc2)cc(-c2ccc(S(C)(=O)=O)cc2)n1-c1ccc(C(F)(F)F)cc1` [Example 19, N-Benzyl-N-methyl-[2-methyl-5-(4-methylsulphonyl)phenyl-1-(4-trifluoromethyl)phenyl-1H-pyrrol-3-yl]acetamide], the IC50 on COX-2 (Table 8, Formula I-c) was 0.47 µM; against COX-1 (Table 8, Formula I-c), more than 100 µM.

Consider `CCOCCc1cc(-c2ccc(S(C)(=O)=O)cc2)n(-c2ccccc2)c1C` [Example 21, [3-(2-Ethoxyethyl)-2-methyl-5-(4-methylsulphonyl)phenyl-1-phenyl]-1H-pyrrole], for which the inhibition in vivo at 20 mg/kg in assay [1] (setting [3]) is 96%; in assay [1] (setting [4]), 72%; in assay [2] it was 45%.

`CCCOCCc1cc(-c2ccc(S(C)(=O)=O)cc2)n(-c2ccccc2)c1C` [Example 22, [2-Methyl-5-(4-methylsulphonyl)phenyl-1-phenyl-3-(2-n-propyloxyethyl)]-1H-pyrrole]: the inhibition in vivo at 20 mg/kg stood at 88% in assay [1] (setting [3]), 94% in assay [1] (setting [4]) and 43% in assay [2].

On to `COCCc1cc(-c2ccc(S(C)(=O)=O)cc2)n(-c2ccc(F)cc2)c1C` [Example 23, [1-(4-Fluoro)phenyl-2-methyl-5-(4-methylsulphonyl)phenyl-3-(2-methoxyethyl)]-1H-pyrrole], for which the 50% inhibitory concentration (IC50) on COX-2 (Table 9, Formula I-d) was 0.018 µM; on COX-1 (Table 9, Formula I-d) it was more than 100 µM.

Turning to `CCCOCCc1cc(-c2ccc(S(C)(=O)=O)cc2)n(-c2ccc(F)cc2)c1C` [Example 25, [1-(4-Fluoro)phenyl-2-methyl-5-(4-methylsulphonyl)phenyl-3-(2-n-propyloxyethyl)]-1H-pyrrole], the results for the inhibition in vivo at 20 mg/kg in assay [1] (setting [3]), in assay [1] (setting [4]) and in assay [2] were 53%, 70% and 41%, respectively.

On to `COCCc1cc(-c2ccc(S(C)(=O)=O)cc2)n(-c2ccc(C(F)(F)F)cc2)c1C` [Example 26, [2-Methyl-5-(4-methylsulphonyl)phenyl-3-(2-methoxyethyl)-1-(4-trifluoromethyl)phenyl]-1H-pyrrole], for which the IC50 on COX-2 (Table 9, Formula I-d) was 0.049 µM; against COX-1 (Table 9, Formula I-d) it was more than 100 µM.

Regarding `CCC(=O)OCCc1cc(-c2ccc(S(C)(=O)=O)cc2)n(-c2ccc(F)cc2)c1C` [Example 29, 2-(1-(4-Fluorophenyl)-2-methyl-5-(4-methylsulphonyl)phenyl-1H-pyrrol-3-yl)ethyl propionate], the “COX-2 % of inhibition at 1.10^−5 M” value at COX-2 was found to be 97%. On COX-1 (Table 11, Formula I-e), this molecule had an IC50 of more than 100 µM.

Take `CCCC(=O)OCCc1cc(-c2ccc(S(C)(=O)=O)cc2)n(-c2ccc(F)cc2)c1C` [Example 30, 2-(1-(4-fluorophenyl)-2-methyl-5-(4-methylsulphonyl)phenyl-1H-pyrrol-3-yl)ethyl butanoate]: the “COX-2 % of inhibition at 1.10^−5 M” value at COX-2 was determined as 86%. At COX-1 (Table 11, Formula I-e), the IC50 is more than 100 µM.

With `Cc1c(CCOC(=O)c2ccccc2)cc(-c2ccc(S(C)(=O)=O)cc2)n1-c1ccc(F)cc1` [Example 31, 2-(1-(4-fluorophenyl)-2-methyl-5-(4-methylsulphonyl)phenyl-1H-pyrrol-3-yl)ethyl benzoate], the “COX-2 % of inhibition at 1.10^−5 M” value on COX-2 was 76%. The molecule further had a concentration for half-maximal inhibition (IC50) against COX-1 (Table 11, Formula I-e) of more than 100 µM.

With `Cc1c(CCOC(=O)c2ccccc2F)cc(-c2ccc(S(C)(=O)=O)cc2)n1-c1ccc(F)cc1` [Example 32, 2-(1-(4-fluorophenyl)-2-methyl-5-(4-methylsulphonyl)phenyl-1H-pyrrol-3-yl)ethyl 2-fluorobenzoate], the “COX-2 % of inhibition at 1.10^−5 M” value at COX-2 was 64%. For the same molecule, the IC50 against COX-1 (Table 11, Formula I-e) is more than 100 µM.

`Cc1c(CCOC(=O)c2ccc(F)cc2)cc(-c2ccc(S(C)(=O)=O)cc2)n1-c1ccc(F)cc1` [Example 33, 2-(1-(4-fluorophenyl)-2-methyl-5-(4-methylsulphonyl)phenyl-1H-pyrrol-3-yl)ethyl 4-fluorobenzoate]: the “COX-2 % of inhibition at 1.10^−5 M” value on COX-2 was 69%. The IC50 against COX-1 (Table 11, Formula I-e) was more than 100 µM.

On to `Cc1c(CCOC(=O)c2cccs2)cc(-c2ccc(S(C)(=O)=O)cc2)n1-c1ccc(F)cc1` [Example 34, 2-(1-(4-fluorophenyl)-2-methyl-5-(4-methylsulphonyl)phenyl-1H-pyrrol-3-yl)ethyl 2-tiophencarboxylate], for which, on COX-2, the “COX-2 % of inhibition at 1.10^−5 M” value is 69%. Moreover, the IC50 against COX-1 (Table 11, Formula I-e) was more than 100 µM.

One may read the IC50 as the point on the concentration scale where inhibition reaches its midpoint.
